Test systems include U-251; COLO 205; ACHN; A498; SNB-19; MOLT-4; T47D; K562; SR; MDA-MB-231; HCT-15; SF-295; MDA-N; HOP-92; NCI-H460; OVCAR-5; SN12C; NCI-H522; SK-OV-3; SF-268.
Test in all cases: growth of human tumour cells (NCI), 48 h

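Where inhibition never reached the appropriate level, the endpoint shown equals the highest concentration tested. Otherwise, values were interpolated linearly from a five-concentration, 48-hour dose response in 96-well plates. The concentration for 50% growth inhibition is given as GI50.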 Calls of active or inactive are those of the source. No stated cut-off is given here; in the data, active = GI50 up to about 1.1 µM and inactive = higher.

In the case of `CC(C)c1cc(=O)[nH]c2cc(N)ccc12`, the GI50 in the assay with U-251, in the assay with COLO 205, in the assay on ACHN, in the assay with A498, with SNB-19 and with MOLT-4 was > 100 µM (inactive) throughout. In addition, the GI50 with T47D is > 100 µM (inactive); with K562 it was > 100 µM (inactive); in the assay with SR, > 100 µM (inactive); in the assay on MDA-MB-231, > 100 µM (inactive); in the assay on HCT-15, over 100 µM; with SF-295 it was > 100 µM (inactive). The GI50 in the assay with MDA-N, with HOP-92, in the assay on NCI-H460, in the assay on OVCAR-5 and in the assay with SN12C was > 100 µM (inactive) in each case.
With `Clc1sc(Cl)c2c1[C@@H](Cl)C[C@@H]2Cl`, the GI50 with U-251 was > 100 µM (inactive); in the assay with COLO 205 it was > 100 µM (inactive); with ACHN, > 100 µM (inactive); with A498 it was > 100 µM (inactive); with MOLT-4, 46.6 µM (inactive); with T47D it was 45.4 µM (inactive). Also, the GI50 is 48.5 µM (inactive) in the assay with K562; 33.6 µM (inactive) in the assay with SR; > 100 µM (inactive) in the assay with MDA-MB-231; over 100 µM in the assay with HCT-15; 18.9 µM (inactive) with NCI-H522; > 100 µM (inactive) in the assay with SF-295. Also, the GI50 was > 100 µM (inactive) in the assay on MDA-N; 37.4 µM (inactive) in the assay on HOP-92; 92.9 µM (inactive) in the assay on NCI-H460; > 100 µM (inactive) in the assay with OVCAR-5; > 100 µM (inactive) in the assay on SK-OV-3; > 100 µM (inactive) in the assay on SN12C. Moreover, the GI50 with SF-268 is 62.1 µM (inactive).
Regarding `CCOC(=O)c1ccc(C(=O)/C(C#N)=C2\CCCN2)n1C`, the GI50 with U-251 is > 100 µM (inactive); in the assay with COLO 205, > 100 µM (inactive); in the assay with ACHN, > 100 µM (inactive); in the assay on A498, > 100 µM (inactive); in the assay with SNB-19 it was > 100 µM (inactive); in the assay on MOLT-4, 13.6 µM (inactive). The GI50 in the assay with T47D was 28.2 µM (inactive); with K562 it was 13.3 µM (inactive); in the assay on SR it was 31 µM (inactive); with MDA-MB-231, > 100 µM (inactive); in the assay with HCT-15, 76.4 µM; in the assay with NCI-H522, 95.7 µM (inactive). The GI50 with SF-295 was > 100 µM (inactive); in the assay on MDA-N, 34 µM (inactive); in the assay with NCI-H460, > 100 µM (inactive); in the assay with OVCAR-5, > 100 µM (inactive); in the assay with SK-OV-3, > 100 µM (inactive); with SN12C, > 100 µM (inactive). Moreover, the GI50 in the assay on SF-268 was > 100 µM (inactive).
Take `Nc1c(C(=O)O)nnc2ccc(Cl)cc12`: the GI50 in the assay on U-251 was > 100 µM (inactive); with COLO 205, > 100 µM (inactive); in the assay with ACHN, > 100 µM (inactive); in the assay with A498, 58.6 µM (inactive); in the assay on SNB-19, > 100 µM (inactive); in the assay with MOLT-4 it was > 100 µM (inactive). The GI50 in the assay on T47D was > 100 µM (inactive); in the assay with K562 it was > 100 µM (inactive); with SR, > 100 µM (inactive); with MDA-MB-231, > 100 µM (inactive); in the assay on HCT-15 it was over 100 µM; in the assay on NCI-H522 it was > 100 µM (inactive). For the same compound, the GI50 with SF-295, with MDA-N, in the assay with NCI-H460, with OVCAR-5, with SK-OV-3 and in the assay with SN12C was > 100 µM (inactive) each time. Also, the GI50 with SF-268 is > 100 µM (inactive).
For the compound `C=CC1CCC[N+]1(CC(=O)OCC)Cc1ccccc1` (centres undefined), the GI50 with U-251, with COLO 205, in the assay with ACHN, in the assay with A498, with SNB-19 and with MOLT-4 was > 100 µM (inactive) throughout. Also, the GI50 with T47D is > 100 µM (inactive); in the assay with K562, > 100 µM (inactive); in the assay with SR it was > 100 µM (inactive); in the assay on MDA-MB-231, > 100 µM (inactive); in the assay on HCT-15, over 100 µM; in the assay on SF-295, > 100 µM (inactive). In addition, the GI50 in the assay with MDA-N, in the assay on HOP-92, in the assay on NCI-H460, in the assay on OVCAR-5, in the assay on SK-OV-3 and in the assay with SN12C was > 100 µM (inactive) each time. Further, the GI50 in the assay on SF-268 was > 100 µM (inactive).
`CCOC(=O)c1[nH]cc(C)c1-c1ccc2c(-c3ccccc3)nc3ccccc3n12`: the GI50 in the assay on U-251 is 3.01 µM (inactive); in the assay on COLO 205 it was 2.86 µM (inactive); with ACHN, 4.01 µM (inactive); with A498, 2.84 µM (inactive); with MOLT-4, 2.31 µM (inactive); in the assay on T47D, 4.43 µM (inactive). Moreover, the GI50 in the assay on K562 is 3.34 µM (inactive); in the assay on SR, 1.62 µM (inactive); in the assay on MDA-MB-231, 3.13 µM (inactive); with HCT-15, 3.55 µM; in the assay on NCI-H522, 1.53 µM (inactive); in the assay on SF-295, 3.52 µM (inactive). In addition, the GI50 in the assay on MDA-N was 2.66 µM (inactive); in the assay on HOP-92 it was 3.52 µM (inactive); in the assay on NCI-H460, 2.92 µM (inactive); in the assay with OVCAR-5, 15.8 µM (inactive); in the assay on SK-OV-3, 4.4 µM (inactive); in the assay on SN12C, 3.37 µM (inactive). The GI50 with SF-268 is 3.94 µM (inactive).
For `CO/C(=N\N=C\c1ccc(OC)c(OC)c1)c1ccncc1`, the GI50 in the assay with U-251, with COLO 205, in the assay on A498, with MOLT-4, with T47D and in the assay on K562 was > 10 µM (inactive) throughout. Besides, the GI50 in the assay with SR is > 10 µM (inactive); with MDA-MB-231, > 10 µM (inactive); in the assay with HCT-15 it was over 10 µM; with MDA-N, > 10 µM (inactive); in the assay with HOP-92, > 10 µM (inactive); in the assay on NCI-H460, > 10 µM (inactive). Besides, the GI50 in the assay with SK-OV-3, in the assay on SN12C and in the assay on SF-268 was > 10 µM (inactive) each time.
Consider `COc1cc(Cc2nccc3cc(OC)c(OC)cc23)c(C(C)=O)cc1OC`, for which the GI50 in the assay on U-251 is 2.54 µM (inactive); with COLO 205 it was 18.4 µM (inactive); in the assay with ACHN it was 153 µM (inactive); with A498, > 300 µM (inactive); with SNB-19 it was 300 µM (inactive); in the assay with T47D, 2.2 µM (inactive). Further, the GI50 with SR is > 750 µM (inactive); in the assay on MDA-MB-231 it was 78.5 µM (inactive); in the assay on NCI-H522, 10.2 µM (inactive); in the assay with SF-295 it was > 300 µM (inactive); in the assay with MDA-N, 28.2 µM (inactive); in the assay on HOP-92, 150 µM (inactive). For the same compound, the GI50 with OVCAR-5 is > 300 µM (inactive); in the assay on SK-OV-3, 128 µM (inactive); with SN12C, 1.76 µM (inactive); with SF-268, 1.56 µM (inactive).
Consider `O=[N+]([O-])/C=C/c1cc(Cl)c(/C=C/[N+](=O)[O-])cc1Cl`, for which the GI50 with U-251 is 1.63 µM (inactive); with COLO 205 it was 1.95 µM (inactive); in the assay on ACHN it was 1.57 µM (inactive); with A498 it was 5.89 µM (inactive); with SNB-19, 2.37 µM (inactive); in the assay with MOLT-4 it was 0.434 µM (active). In addition, the GI50 with T47D was 2.03 µM (inactive); with SR it was 0.225 µM (active); in the assay with MDA-MB-231 it was 1.86 µM (inactive); in the assay with HCT-15, 1.01 µM; with NCI-H522 it was 0.975 µM (active); with SF-295, 4.68 µM (inactive). For the same compound, the GI50 was 2.27 µM (inactive) in the assay on MDA-N; 2.55 µM (inactive) in the assay with HOP-92; 19.4 µM (inactive) with NCI-H460; 1.52 µM (inactive) with OVCAR-5; 35.6 µM (inactive) in the assay on SK-OV-3; 1.8 µM (inactive) with SN12C. In addition, the GI50 in the assay with SF-268 was 2.66 µM (inactive).
Take `Cc1ccc(O)c(C2=CC3=NNC(=O)C3C(c3cccc(Br)c3)C2)c1` (centres undefined): the GI50 with U-251 was 21.7 µM (inactive); in the assay on COLO 205, 12.3 µM (inactive); in the assay with ACHN, 24 µM (inactive); with A498 it was 42.9 µM (inactive); with SNB-19 it was 34.2 µM (inactive); in the assay on MOLT-4 it was 30.9 µM (inactive). The GI50 with T47D was 20.5 µM (inactive); with K562, 25.8 µM (inactive); with SR, 21.2 µM (inactive); in the assay on MDA-MB-231, 20 µM (inactive); in the assay with HCT-15, 20.9 µM; with SF-295, 18.8 µM (inactive). Also, the GI50 with MDA-N is 23.7 µM (inactive); with HOP-92, 16.6 µM (inactive); in the assay with NCI-H460 it was 22.4 µM (inactive); with OVCAR-5 it was 21.8 µM (inactive); in the assay on SK-OV-3, 14.6 µM (inactive); with SN12C, 19.9 µM (inactive). Also, the GI50 in the assay with SF-268 was 23 µM (inactive).
Take `COC1(CC[C@H](C)COC2OC(CO)C(O)C(O)C2O)O[C@H]2C[C@H]3[C@@H]4CC=C5C[C@@H](OC6OC(CO)C(OC7OC(C)C(O)C(O)C7O)C(O)C6OC6OC(C)C(O)C(O)C6O)CC[C@]5(C)[C@H]4CC[C@]3(C)[C@H]2[C@@H]1C` (some centres undefined): the GI50 in the assay with U-251 was 2.4 µM (inactive); with COLO 205, 6.25 µM (inactive); with ACHN it was 12 µM (inactive); in the assay with A498, 23.5 µM (inactive); with SNB-19, 3.46 µM (inactive); with MOLT-4, > 23.5 µM (inactive). Also, the GI50 is 2.45 µM (inactive) with T47D; > 100 µM (inactive) with SR; 5.05 µM (inactive) with MDA-MB-231; 2.68 µM in the assay with HCT-15; 2.31 µM (inactive) with NCI-H522; 4.29 µM (inactive) with SF-295. The GI50 in the assay with MDA-N was 2.88 µM (inactive); with HOP-92, 1.9 µM (inactive); in the assay with OVCAR-5, 4.2 µM (inactive); in the assay with SK-OV-3, 2.82 µM (inactive); with SN12C, 7.76 µM (inactive); with SF-268, 3.24 µM (inactive).
